Test results as given in patent US12421276B2 (priority 2016, dated 2025).
Several values for one entry are separate records, joined by “and”; a condition that tells them apart may be missing. Equal entries are not always repeated. Where two headings read alike, the source gives them in different places.

Format: in vivo, rat
Method in brief: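 Male SD rats (n=4/group) dosed PO at 13.2 or 14.2 mg/kg (10 mL/kg) and housed in metabolic cages with daily urine collection. EDTA blood sampled predose to 24 h post-dose, centrifuged at 4 °C to plasma, analysed by LC-MS.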

[1] = Rat, PO, 10 mg/kg equiv., n = 4, analyte: Parent (BASE STRUCTURE)
[2] = Rat, PO, 10 mg/kg equiv., n = 4, analyte: Prodrug
[3] = rat, dosed as prodrug, 10 mg/kg equivalent of Base Structure, analyte Parent (Base Structure), Average
[4] = rat, dosed as prodrug, 10 mg/kg equivalent of Base Structure, analyte Parent (Base Structure), Combined (average ± std. dev.)
[5] = rat, dosed as prodrug, 10 mg/kg equivalent of Base Structure, analyte Parent (Base Structure), individual animals
[6] = rat, dosed as prodrug, 10 mg/kg equivalent of Base Structure, analyte Parent (Base Structure), individual animals, 10 mg/kg
[7] = rat, dosed as prodrug, 10 mg/kg equivalent of Base Structure, analyte Prodrug, Average
[8] = rat, dosed as prodrug, 10 mg/kg equivalent of Base Structure, analyte Prodrug, Combined (average ± std. dev.)
[9] = rat, dosed as prodrug, 10 mg/kg equivalent of Base Structure, analyte Prodrug, individual animals
[10] = rat, dosed as prodrug, 10 mg/kg equivalent of Base Structure, analyte Prodrug, individual animals, 10 mg/kg

SMILES: CCCCCC(=O)NC(Cc1ccc(OC(=O)NCCN(C)C)cc1)C(=O)NC(C(=O)NCCCCCC(N)=O)C(C)CC (stereo not shown) [Compound A21]
- AUC0-24 [1]: 7.4 ± 0.9 ng·h/mL
- AUC0-inf [1]: 47.8 ± 1 ng·h/mL
- Cmax [1]: 0.6 ± 0.1 ng/mL
- Tmax [1]: 0.9 ± 0.8 h
- half-life [1]: 81.7 ± 5.7 h
- AUC0-24 [2]: 2.8 ± 1.9 ng·h/mL
- AUC0-inf [2]: 6.46 ng·h/mL
- Cmax [2]: 1.6 ± 0.5 ng/mL
- Tmax [2]: 0.8 ± 0.4 h
- half-life [2]: 1.32 h
- AUC 0-inf_obs [3]: 47.78 ng·h/mL
- AUC 0-t [3]: 7.45 ng·h/mL
- AUMC 0-inf_obs [3]: 5777.4305 ng/ml * h^2
- Cl/F_obs [3]: 0.2094 (mg/kg)/(ng/ml)/h
- Cmax [3]: 0.62 ng/mL
- Lambda_z [3]: 0.008507 h⁻¹
- MRT 0-inf_obs [3]: 120.8 h
- Tlag [3]: 0 h
- Tmax [3]: 0.875 h
- Vz/F_obs [3]: 24.65 (mg/kg)/(ng/ml)
- t1/2 [3]: 81.6756 h
- AUC 0-inf_obs [4]: 47.8 ± 1 ng·h/mL
- AUC 0-t [4]: 7.4 ± 0.9 ng·h/mL
- AUMC 0-inf_obs [4]: 5777.4 ± 551.6 ng/ml * h^2
- Cl/F_obs [4]: 0.2 ± 0 (mg/kg)/(ng/ml)/h
- Cmax [4]: 0.6 ± 0.1 ng/mL
- Lambda_z [4]: 0 ± 0 h⁻¹
- MRT 0-inf_obs [4]: 120.8 ± 9.1 h
- Tlag [4]: 0 ± 0 h
- Tmax [4]: 0.9 ± 0.8 h
- Vz/F_obs [4]: 24.7 ± 1.2 (mg/kg)/(ng/ml)
- t1/2 [4]: 81.7 ± 5.7 h
- Tlag [5]: 0 h
- AUC 0-inf_obs [6]: 48.45 ng·h/mL and 47.1 ng·h/mL
- AUC 0-t [6]: 7.285 ng·h/mL and 8.222 ng·h/mL and 6.27 ng·h/mL and 8.022 ng·h/mL
- AUMC 0-inf_obs [6]: 6167.4557 ng/ml * h^2 and 5387.4053 ng/ml * h^2
- Cl/F_obs [6]: 0.2064 (mg/kg)/(ng/ml)/h and 0.2123 (mg/kg)/(ng/ml)/h
- Cmax [6]: 0.744 ng/mL and 0.604 ng/mL and 0.555 ng/mL and 0.577 ng/mL
- Lambda_z [6]: 0.00809 h⁻¹ and 0.008925 h⁻¹
- MRT 0-inf_obs [6]: 127.3 h and 114.4 h
- Tmax [6]: 0.25 h (2×) and 1 h and 2 h
- Vz/F_obs [6]: 25.51 (mg/kg)/(ng/ml) and 23.79 (mg/kg)/(ng/ml)
- t1/2 [6]: 85.68 h and 77.67 h
- AUC 0-inf_obs [7]: 6.459 ng·h/mL
- AUC 0-t [7]: 2.846 ng·h/mL
- AUMC 0-inf_obs [7]: 13.69 ng/ml * h^2
- Cl/F_obs [7]: 1.548 (mg/kg)/(ng/ml)/h
- Cmax [7]: 1.615 ng/mL
- Lambda_z [7]: 0.5257 h⁻¹
- MRT 0-inf_obs [7]: 2.119 h
- Tlag [7]: 0 h
- Tmax [7]: 0.8125 h
- Vz/F_obs [7]: 2.945 (mg/kg)/(ng/ml)
- t1/2 [7]: 1.319 h
- AUC 0-inf_obs [8]: 6.459 ng·h/mL
- AUC 0-t [8]: 2.8 ± 1.9 ng·h/mL
- AUMC 0-inf_obs [8]: 13.69 ng/ml * h^2
- Cl/F_obs [8]: 1.548 (mg/kg)/(ng/ml)/h
- Cmax [8]: 1.6 ± 0.5 ng/mL
- Lambda_z [8]: 0.5257 h⁻¹
- MRT 0-inf_obs [8]: 2.119 h
- Tlag [8]: 0 ± 0 h
- Tmax [8]: 0.8 ± 0.4 h
- Vz/F_obs [8]: 2.945 (mg/kg)/(ng/ml)
- t1/2 [8]: 1.319 h
- AUC 0-inf_obs [9]: 6.459 ng·h/mL
- AUMC 0-inf_obs [9]: 13.69 ng/ml * h^2
- Cl/F_obs [9]: 1.548 (mg/kg)/(ng/ml)/h
- Lambda_z [9]: 0.5257 h⁻¹
- MRT 0-inf_obs [9]: 2.119 h
- Tlag [9]: 0 h
- Vz/F_obs [9]: 2.945 (mg/kg)/(ng/ml)
- t1/2 [9]: 1.319 h
- AUC 0-t [10]: 5.619 ng·h/mL and 2.381 ng·h/mL and 1.498 ng·h/mL and 1.885 ng·h/mL
- Cmax [10]: 2.18 ng/mL and 1.89 ng/mL and 1.01 ng/mL and 1.38 ng/mL
- Tmax [10]: 0.25 h and 1 h (3×)

SMILES: CCCCCC(=O)NC(Cc1ccc(OC(=O)N2CCN(C)CC2)cc1)C(=O)NC(C(=O)NCCCCCC(N)=O)C(C)CC (stereo not shown) [Compound A20]
- AUC0-24 (ng · h/mL) [1]: 0.8 ± 1^ ng · h/mL
- AUC0-inf [1]: 1.61 ng·h/mL
- Cmax [1]: 1.7 ± 1.3 ng/mL
- Tmax (h) [1]: 0.3 ± 0^ h
- half-life [1]: 0.17 h
- Tmax [2]: 0 h
- AUC 0-inf_obs [3]: 1.611 ng·h/mL
- AUC 0-t [3]: 0.8309 ng·h/mL
- AUMC 0-inf_obs [3]: 0.6699 ng/ml * h^2
- Cl/F_obs [3]: 6.207 (mg/kg)/(ng/ml)/h
- Cmax [3]: 1.7125 ng/mL
- Lambda_z [3]: 4.022 h⁻¹
- MRT 0-inf_obs [3]: 0.4158 h
- Tlag [3]: 0 h
- Tmax [3]: 0.25 h
- Vz/F_obs [3]: 1.543 (mg/kg)/(ng/ml)
- t1/2 [3]: 0.1723 h
- AUC 0-inf_obs [4]: 1.611 ng·h/mL
- AUC 0-t [4]: 0.8 ± 1 ng·h/mL
- AUMC 0-inf_obs [4]: 0.6699 ng/ml * h^2
- Cl/F_obs [4]: 6.207 (mg/kg)/(ng/ml)/h
- Cmax [4]: 1.7 ± 1.3 ng/mL
- Lambda_z [4]: 4.022 h⁻¹
- MRT 0-inf_obs [4]: 0.4158 h
- Tlag [4]: 0 ± 0 h
- Tmax [4]: 0.3 ± 0 h
- Vz/F_obs [4]: 1.543 (mg/kg)/(ng/ml)
- t1/2 [4]: 0.1723 h
- AUC 0-inf_obs [5]: 1.611 ng·h/mL
- AUMC 0-inf_obs [5]: 0.6699 ng/ml * h^2
- Cl/F_obs [5]: 6.207 (mg/kg)/(ng/ml)/h
- Lambda_z [5]: 4.022 h⁻¹
- MRT 0-inf_obs [5]: 0.4158 h
- Tlag [5]: 0 h
- Tmax [5]: 0.25 h
- Vz/F_obs [5]: 1.543 (mg/kg)/(ng/ml)
- t1/2 [5]: 0.1723 h
- AUC 0-t [6]: 0.08927 ng·h/mL and 1.5726 ng·h/mL
- Cmax [6]: 0.765 ng/mL and 2.66 ng/mL
- AUMC 0-inf_obs [7]: 0 ng/ml * h^2
- Cl/F_obs [7]: 0 (mg/kg)/(ng/ml)/h
- Lambda_z [7]: 0 h⁻¹
- Tlag [7]: 0 h
- Tmax [7]: 0 h
- Vz/F_obs [7]: 0 (mg/kg)/(ng/ml)
- AUMC 0-inf_obs [8]: 0 ng/ml * h^2
- Cl/F_obs [8]: 0 (mg/kg)/(ng/ml)/h
- Lambda_z [8]: 0 h⁻¹
- Tlag [8]: 0 h
- Tmax [8]: 0 h
- Vz/F_obs [8]: 0 (mg/kg)/(ng/ml)
- AUMC 0-inf_obs [9]: 0 ng/ml * h^2
- Cl/F_obs [9]: 0 (mg/kg)/(ng/ml)/h
- Lambda_z [9]: 0 h⁻¹
- Tlag [9]: 0 h
- Tmax [9]: 0 h
- Vz/F_obs [9]: 0 (mg/kg)/(ng/ml)
